Laboratory results reported in paper PMC10045301, “The Role of Pyrazolo[3,4-d]pyrimidine-Based Kinase Inhibitors in The Attenuation of CCl4-Induced Liver Fibrosis in Rats” (Antioxidants, 2023).
Read-outs that look alike come from different tables or passages of the source.

Tests used:
[1] = Cytotoxicity MTT assay; assay type: cell-based; conditions: human, HepG2 cells (hepatocellular carcinoma cell line), HepG2, MTT, mean ± SEM, n = 3
Description: (§1) MTT assay was used to estimate cell viability potential for 24 h using hepatocellular carcinoma cell line (HepG2) as previously reported. Calculation of the relative cell viability percentage was performed following the equation: % Relative cell viability = (Absorbance of treated samples/Absorbance of untreated sample) × 100.

[2] = tested on: induced liver fibrosis; conditions: cited from earlier work
[3] = tested on: healthy adult Sprague–Dawley male rats; assay: In vivo toxicity study, 6 weeks oral daily; parameters: species or system rat; conditions: plasma, oral daily 6 weeks, dose equimolar to celecoxib 20 mg/kg; mean ± SEM, n = 6
Description: (§2) Ninety-eight healthy adult Sprague–Dawley male rats with an average weight of 150 ± 20 g were obtained from the animal facility at the Institute of Graduate Studies and Research, Alexandria University, Egypt. Animals were provided with a balanced commercial diet ad libitum and adapted for two weeks prior to the experiment. All animals were sacrificed under IP thiopental anesthesia (50 mg/kg) 48 h after the last treatment.
Blood samples were collected using cardiac puncture in Li-heparin tubes and centrifuged at 2000× g for 10 min to obtain the plasma. Then, the determination of hepatic biomarkers and renal profile was performed according to kits purchased from Roche Diagnostics, USA, using a Roche/Hitachi analyzer (cobas c 311, cobas c 501/502). […]

[4] = tested on: induced liver fibrosis; conditions: injected subcutaneously 3.6 µL/day, mice models; cited from earlier work
[5] = tested on: hepatocellular carcinoma cell line (HepG2); assay: Cytotoxicity MTT assay; assay type: cell-based; conditions: human, 24 h
Description: as §1

[6] = tested on: CCl4-induced liver fibrosis in male Sprague–Dawley rats; assay: Therapeutic model treated after induction of CCl4 liver fibrosis; assay type: in vivo, rat; conditions: for redox status (MDA, GSH, SOD in liver homogenate): oral daily weeks 7-12 after CCl4, compared to Clx
Description: as §2
Blood samples were collected using cardiac puncture in Li-heparin tubes and centrifuged at 2000× g for 10 min to obtain the plasma. Then, the determination of hepatic biomarkers and renal profile was performed according to kits purchased from Roche Diagnostics, USA, using a Roche/Hitachi analyzer (cobas c 311, cobas c 501/502).
Rats were sacrificed by exsanguination following blood sample collection. The livers were excised, rinsed with cold saline, and dried on filter paper. A portion of each excised liver was put in 10% formalin solution, and then embedded in paraffin and sliced into 4–5 µm sections for histological evaluation. Another part of each liver was snap frozen and stored at −80 °C for later analyses of markers. The remaining tissue was stored in RNAlater solution (Qiagen, Germany, Mat. No. 1018087, lot no. 148052467) for qRT-PCR.
Sections from formalin-fixed paraffin-embedded (FFPE) liver tissues were stained with hematoxylin and eosin and Masson trichrome stain to evaluate liver necrosis and fibrosis. The scores of liver fibrosis degree were evaluated according to a 4-tiered scoring system following the criteria: score 0 = absent fibrosis where scanty fibrous tissue is seen only in portal tracts, score 1 = minimal fibrosis (expanded portal tracts with short fibrous septea may be extending from portal tracts), score 2 = mild fibrosis (long fibrous septea is extending from portal tracts with occasional bridging to other portal tracts or to central veins), score 3 = moderate fibrosis (frequent portal to portal or to central vein bridging with infrequent pseudolobule formation), and score 4 = severe fibrosis (nodular liver with evident pseudolobule formation). For collagen morphological quantification, multiple random pictures of the trichrome-stained section were taken using a microscope-adopted camera at ×400 power. The collagen-positive area stained in blue was evaluated using ImageJ software and then calculated as a percentage of the total field area. At least eight fields were assessed and the mean value was then calculated.
Four-micron sections were cut and mounted on positively charged slides. They were stained with smooth muscle actin (SMA) monoclonal primary antibody (Dako, Denmark; CodeIR611, lot no. 41247585) using Dako auto Stainer (autostainer Link 48). A positive control (leiomyoma) was used in each run. Immune-stained slides were assessed, and ten high power fields of each section were photographed using a Leica camera. Photos were analyzed using ImageJ software to record the immune-positive area (seen as brown staining) in each photo. Then, the positively stained area percentage was calculated as a mean of the 10 examined photos for each rat.
Protein content determination was performed according to Bradford using bovine serum albumin as a standard. A volume of 5 μL of each sample and standard was first added to each well then 250 μL of Ready-To-Use Coomassie Blue G-250 Based Reagent (Thermo Scientific, Waltham, MA, USA; Prod no. 23200, lot no. UE285518) was added. The microplate was put on the shaker for 30 s and then incubated for 10 min at RT. Absorbance was read at […] using a microplate reader.
The malondialdehyde (MDA) level was estimated using the thiobarbituric acid method as previously described. Liver glutathione was estimated using a colorimetric kit (Biodiagnostics, Egypt; catalog no. GR 25 11) according to the method of Beutler et al.. […]

[7] = target: T1, COX-1 (Ovis aries, UniProt P05979); assay: In vitro COX-1 inhibition assay (Cayman colorimetric COX (ovine) inhibitor screening kit); assay type: biochemical; conditions: mean ± SEM, n = 3
T1 construct: purchased Cayman Chemicals, Ann Arbor, MI, USA 560131
T1 sequence (P05979 25-600): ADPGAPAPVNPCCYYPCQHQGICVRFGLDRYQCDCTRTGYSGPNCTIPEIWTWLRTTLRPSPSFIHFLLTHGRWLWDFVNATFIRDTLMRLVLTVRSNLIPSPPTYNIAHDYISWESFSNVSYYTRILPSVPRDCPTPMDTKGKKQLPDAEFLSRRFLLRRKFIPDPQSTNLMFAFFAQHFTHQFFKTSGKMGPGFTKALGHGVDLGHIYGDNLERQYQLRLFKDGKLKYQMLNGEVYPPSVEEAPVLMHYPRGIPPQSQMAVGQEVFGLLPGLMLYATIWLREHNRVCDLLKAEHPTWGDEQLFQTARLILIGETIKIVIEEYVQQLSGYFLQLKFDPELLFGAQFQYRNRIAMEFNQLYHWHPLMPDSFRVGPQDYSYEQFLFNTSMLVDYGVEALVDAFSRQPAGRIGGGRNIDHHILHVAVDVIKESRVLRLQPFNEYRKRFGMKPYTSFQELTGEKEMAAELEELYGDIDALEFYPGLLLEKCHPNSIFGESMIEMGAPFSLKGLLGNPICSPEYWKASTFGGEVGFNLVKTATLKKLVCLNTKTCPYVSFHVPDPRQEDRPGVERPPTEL

[8] = liver tissue homogenate, after CCl4

IC50 [7] [µM]	SMILES	IC50 at 24 h [1] [µM]	ALP [3] [U/L]	ALT [3] [U/L]	AST [3] [U/L]	Albumin [3] [g/dL]	Cholesterol [3] [mg/dL]	Creatinine [3] [mg/dL]	Total Bilirubin [3] [mg/dL]	Triglycerides [3] [mg/dL]	Safety Index (SI) [5]	redox status (MDA, GSH, SOD in liver homogenate) [6]	other results
–	Cc1ccc(-c2cc(C(F)(F)F)nn2-c2ccc(S(N)(=O)=O)cc2)cc1 [Celecoxib, celecoxib, reference compound]	144.6 ± 1.08	138.66 ± 13.40	42 ± 3.33	147.5 ± 18.65	3.73 ± 0.06	52.5 ± 2.21	0.35 ± 0.01	0.084 ± 0.006	53 ± 7.11	–	–	effect on induced liver fibrosis ([2]; 15 mg/kg/day orally, rat models): no effect; effect on induced liver fibrosis ([2]; 20 mg/kg/day orally): potentiality in the attenuation of induced liver fibrosis; effect on induced liver fibrosis [4]: no effect
7.5 ± 0.09	COc1ccc(/C=N/Nc2ncnc3c2cnn3-c2ccccc2)cc1 [Compound D1]	370.7 ± 0.089	159.5 ± 7.48	49.66 ± 4.99	139.5 ± 7.78	3.9 ± 0.12	71.66 ± 7	0.36 ± 0.03	0.073 ± 0.004	67 ± 5.42	2745.9	no significance difference to Clx treatment	–
8.5 ± 0.04	COc1ccc(/C=N/Nc2ncnc3c2cnn3-c2ccccc2)cc1OC [Compound D2]	344.95 ± 0.3	154.16 ± 10.92	39.66 ± 2.13	–	3.78 ± 0.12	67 ± 6.47	0.37 ± 0.01	0.071 ± 0.01	61.83 ± 7.11	3349.0	best enhancement	hepatic mRNA expression of MMP-9 ([6]; after CCl4 and treatment, vs model and control): more significant reduction, reaching a low MMP-9 level near that of the control group; reduction of TGF-β compared to celecoxib ([6]; hepatic mRNA, after CCl4 and treatment): more significant than celecoxib; proinflammatory and profibrogenic cytokines (TNF-α protein, TGF-β and IL-6 gene expression) ([6]; liver, after CCl4 and treatment): decreased considerably reaching the control level; severity of fibrosis (architecture, fibrotic score, collagen- and α-SMA-positive areas, α-SMA and COL1A1 mRNA) ([6]; oral daily weeks 7-12 after 6 weeks CCl4, vs model and Clx group): best effect; restoration of increased plasma ALT and AST ([6]; plasma, after CCl4 and treatment): more significant
11.5 ± 0.05	COc1cc(/C=N/Nc2ncnc3c2cnn3-c2ccccc2)cc(OC)c1OC [Compound D3]	356.5 ± 2.9	123.16 ± 4.12	37.83 ± 2.45	147.33 ± 9.81	3.86 ± 0.12	62.33 ± 1.68	0.42 ± 0.02	0.076 ± 0.006	64 ± 8.01	4042.7	–	MDA level compared to Clx [6, 8]: significantly better that Clx; SOD compared to Clx [6, 8]: equal to it; reduced GSH compared to Clx [6, 8]: worse
